Values of other authors in PubChem BioAssay AID1259410 (Chemical Carcinogenesis Research Information System (CCRIS), 2018).

Tested on: rodent tumor promotion studies, tumor incidence
Experiment: CCRIS tumor promotion studies

For `CNC(=O)Oc1ccccc1OC(C)C`, the outcome (Carcinogen: 7,12-DIMETHYLBENZ[A]ANTHRACENE, 57-97-6, Doses [Carcinogen]: 52 UG IN 100 µL ACETONE ONCE, Doses [Promoter]: 0, 100 MG/KG BW IN 100 µL ACETONE 3/WK FOR 51 WK BEGINNING 1/WK POST CARCINOGEN DOSE (STUDY DURATION: 52 WK), Route [Carcinogen]: DERMAL, Route [Promoter]: DERMAL, Species: MOUSE, Strain/Sex: SWISS/FEMALE) is given as “skin: tumor” and the outcome (Carcinogen: 7,12-DIMETHYLBENZ[A]ANTHRACENE, 57-97-6, Doses [Carcinogen]: 52 UG IN 100 µL ACETONE ONCE, Doses [Promoter]: 0, 100 MG/KG BW IN 100 µL ACETONE 3/WK FOR 51 WK BEGINNING 1 WK POST CARCINOGEN DOSE (STUDY DURATION: 52 WK), Route [Carcinogen]: DERMAL, Route [Promoter]: DERMAL, Species: MOUSE, Strain/Sex: SWISS/MALE) is given as “skin: tumor”.

For `[O-][Cl+3]([O-])([O-])O`, the outcome (Carcinogen: N-bis(2-hydroxypropyl)nitrosamine, 53609-64-6, Doses [Carcinogen]: 0.08 and 0.2% in drinking water for 4 wks at 7-10 wks of age, study duration to 39 wk of age, Doses [Promoter]: In utero (0.1% in diet of dams) and then in drinking water of weaned offspring for 2 wk. Dimethylbenz[a]anthracene, 57-9, Route [Carcinogen]: Oral, Route [Promoter]: In utero and in drinking water, Species: Rat, Strain/Sex: F344/Female (23, 16/group)) is listed as “thyroid: no increase in tumors even though increased follicular cell hyperplasia” and the outcome (Carcinogen: N-bis(2-hydroxypropyl)nitrosamine, 53609-64-6, Doses [Carcinogen]: 0.08 and 0.2% in drinking water for 4 wks at 7-10 wks of age, study duration to 39 wk of age, Doses [Promoter]: In utero (0.1% in diet of dams) and then in drinking water of weaned offspring for 2 wk, Route [Carcinogen]: Oral, Route [Promoter]: In utero and in drinking water, Species: Rat, Strain/Sex: F344/Male (12-15/group)) is listed as “none found”.

In the case of `CCCCCCCCCCCCCC(=O)O[C@@]12C[C@@H](C)[C@@]3(O)[C@@H](C=C(CO)C[C@]4(O)C(=O)C(C)=C[C@@H]34)[C@@H]1C2(C)C`, the outcome (Carcinogen: 7,12-DIMETHYLBENZ[A]ANTHRACENE, 57-97-6, Doses [Carcinogen]: 100 NMOL ONCE, Doses [Promoter]: 0, 80 NMOL 2/WK FOR 42 WK (STUDY DURATION: 42 WK), Route [Carcinogen]: DERMAL, Route [Promoter]: DERMAL, Species: MOUSE, Strain/Sex: NMRI) is listed as “skin: tumor”.

For `Oc1c(Cl)c(Cl)c(O)c(Cl)c1Cl`, the outcome (Carcinogen: 7,12-Dimethylbenzanthracene, 57-97-6, Doses [Carcinogen]: 100 ug in 100 ul acetone once at 7 wks of age, Doses [Promoter]: 100, 500 ug in 100 ul acetone 1 wk after carcinogen, 2 times a wk for 20 or 30 wks, Route [Carcinogen]: Dermal, Route [Promoter]: Dermal, Species: Mouse, Strain/Sex: CD-1/Female) is given as “skin: tumors (dihydrolipoic acid significantly inhibited tumor incidence and mul”.

For `C1CCCCC1`, the outcome (Carcinogen: DIMETHYLBENZ[A]ANTHRACENE, 57-97-6, Doses [Carcinogen]: 0.2 UMOL (51.2 UG) IN O.2 ML ACETONE ONCE, Doses [Promoter]: 0, 100 µL 3/WK ADMINISTERED 7 D POST CARCINOGEN DOSE AND CONTINUING FOR DURATION OF STUDY (STUDY DURATION: 1 YR), Route [Carcinogen]: DERMAL, Route [Promoter]: DERMAL, Species: MOUSE, Strain/Sex: SWISS/FEMALE) is listed as “skin: tumor, squamous cell papilloma, keratoacanthoma”.

In the case of `CCCCCCC(=O)C/C=C/CCCCCCCC(=O)OC`, the outcome (Carcinogen: 4-NITROQUINOLINE-1-OXIDE, Doses [Carcinogen]: IG, Doses [Promoter]: IN DIET, Route [Carcinogen]: GAVAGE, Route [Promoter]: ORAL, Species: MOUSE, Strain/Sex: MALE,FEMALE) is listed as “forestomach” and the outcome (Carcinogen: 7,12-DIMETHYLBENZ(A)ANTHRACENE, Doses [Carcinogen]: TOP, Route [Carcinogen]: DERMAL, Route [Promoter]: DERMAL, Species: MOUSE, Strain/Sex: MALE,FEMALE) is listed as “integumentary system (skin)”.

In the case of `COc1ccc2c(c1)c(CC(=O)O)c(C)n2C(=O)c1ccc(Cl)cc1`, the outcome (Carcinogen: N-(4-(5-NITRO-2-FURYL)-2-THIAZOLYL)FORMAMIDE, 24554-26-5, Doses [Carcinogen]: 0.2% IN DIET FOR 7 WK, Doses [Promoter]: 0, 1 MG/KG/D IN DRINKING WATER FOR DURATION OF STUDY (STUDY DURATION: 92 WK), Route [Carcinogen]: ORAL, Route [Promoter]: ORAL, Species: RAT, Strain/Sex: SPRAGUE-DAWLEY/FEMALE) is listed as “urinary tract: tumor”.

For `C[C@H](CCC(=O)O)[C@H]1CC[C@H]2[C@@H]3CC[C@@H]4C[C@H](O)CC[C@]4(C)[C@H]3C[C@H](O)[C@]12C`, the outcome (Carcinogen: AZOXYMETHANE, 25843-45-2, Doses [Carcinogen]: 7.4 MG/KG BW/WK FOR 5 WK, Doses [Promoter]: 0, 0.3% OF CHOW PELLETS FOR 45 WK BEGINNING FROM START OF ADMINISTRATION OF CARCINOGEN (STUDY DURATION: 45 WK), Route [Carcinogen]: SUBCUTANEOUS, Route [Promoter]: ORAL, Species: RAT, Strain/Sex: WISTAR/MALE) is given as “colon: tumor”, the outcome (Carcinogen: DIETHYLNITROSAMINE, 55-18-5, 2-(ACETYLAMINO)FLUORENE, 6292-55-3, Carcinogen: DIETHYLNITROSAMINE, 55-18-5, 2-(ACETYLAMINO)FLUORENE, 6292-55-3, Doses [Carcinogen]: 200 MG/KG DEN FOLLOWED 2 WK LATER BY 0.03% 2AAF IN DIET FOR 2 WK PLUS 2 ML/KG CCL4 IN THE MIDDLE OF TREATMENT, Doses [Promoter]: 0.5% IN DIET BEGINNING 1 WK POST CARCINOGEN TREATMENT AND CONTINUING FOR DURATION OF TREATMENT (STUDY DURATION: 35 WK), Route [Carcinogen]: INTRAPERITONEAL, ORAL, Route [Promoter]: ORAL, Species: RAT, Strain/Sex: WISTAR/MALE) is given as “liver: hepatocellular carcinoma or cholangiocarcinoma” and the outcome (Carcinogen: DIETHYLNITROSAMINE, 55-18-5, 2-ACETYLAMINO-FLUORENE, 53-96-3, CARBON TETRACHLORIDE, 56-23-5, Carcinogen: DIETHYLNITROSAMINE, 55-18-5, 2-ACETYLAMINO-FLUORENE, 53-96-3, CARBON TETRACHLORIDE, 56-23-5, Doses [Carcinogen]: 200 NMOL DEN ONCE FOLLOWED 2 WK LATER BY 0.03% 2AAF IN DIET PLUS 2 ML/MG CC14 IN THE MIDDLE OF 2AAF TREATMENT OF 3 WK, Doses [Promoter]: 0, 0.5% IN DIET BEGINNING POST CARCINOGEN TREATMENT AND CONTINUING FOR 30 WK (STUDY DURATION: 35 WK), Route [Carcinogen]: INTRAPERITONEAL, ORAL, Route [Carcinogen]: INTRAPERITONEAL, ORAL, Route [Promoter]: ORAL, Species: RAT, Strain/Sex: WISTAR/MALE) is given as “liver: tumor”. The outcome (Carcinogen: N-METHYL-N-AMYLNITROSAMINE, 13256-07-0, Doses [Carcinogen]: 0.003% IN DRINKING WATER FOR 8 WK FOLLOWED BY TAP WATER FOR 20 WK, Doses [Promoter]: 0, 0.2% IN DIET BEGINNING POST CARCINOGEN TREATMENT AND CONTINUING FOR 20 WK (STUDY DURATION: 28 WK), Route [Carcinogen]: ORAL, Route [Promoter]: ORAL, Species: RAT, Strain/Sex: WISTAR/MALE) was “esophagus: papilloma”, the outcome (Carcinogen: N-METHYL-N-AMYLNITROSAMINE, 13256-07-0, Doses [Carcinogen]: 0.003% IN DRINKING WATER FOR 8 WK FOLLOWED BY TAP WATER FOR 20 WK, Doses [Promoter]: 0, 0.2% IN DIET FOR 8 WK SIMULTANEOUSLY WITH CARCINOGEN TREATMENT (STUDY DURATION: 28 WK), Route [Carcinogen]: ORAL, Route [Promoter]: ORAL, Species: RAT, Strain/Sex: WISTAR/MALE) was “esophagus: papilloma” and the outcome (Carcinogen: N-METHYL-N-AMYLNITROSAMINE, 13256-07-0, Doses [Carcinogen]: 0.003% IN DRINKING WATER FOR 8 WK FOLLOWED BY TAP WATER FOR 20 WK, Doses [Promoter]: 0, 0.2% IN DIET FOR DURATION OF STUDY (STUDY DURATION: 28 WK), Route [Carcinogen]: ORAL, Route [Promoter]: ORAL, Species: RAT, Strain/Sex: WISTAR/MALE) was “esophagus: carcinoma, papilloma”. For the same compound, the outcome (Doses [Carcinogen]: IR, Route [Carcinogen]: RECTAL, Route [Promoter]: RECTAL, Species: RAT, Strain/Sex: FEMALE) was “colon”.

For `OO`, the outcome (Carcinogen: N-METHYL-N'-NITRO-N-NITROSOGUANIDINE, 70-25-7, Doses [Carcinogen]: 25 PPM IN WATER FOR 30 MIN, Doses [Promoter]: 0, 600, 3000 PPM IN DIETS CONTAINING HIGH (1000 PPM) LEVELS OF VITAMIN E FOR 8 MO (STUDY DURATION: 10 MO), Doses [Promoter]: 0, 600, 3000 PPM IN DIETS CONTAINING HIGH (1000 PPM) LEVELS OF VITAMIN E FOR 8 MO (STUDY DURATION: 10 MO), Route [Carcinogen]: IMMERSION, Route [Promoter]: ORAL, Species: FISH, Strain/Sex: RAINBOW TROUT/MALE, FEMALE) is listed as “liver: tumor” and the outcome (Carcinogen: N-METHYL-N'-NITRO-N-NITROSOGUANIDINE, 70-25-7, Doses [Carcinogen]: 25 PPM IN WATER FOR 30 MIN, Doses [Promoter]: 0, 600 PPM IN DIETS CONTAINING LOW (20 PPM) LEVELS OF VITAMIN E FOR 8 MO (STUDY DURATION: 10 MO), Route [Carcinogen]: IMMERSION, Route [Promoter]: ORAL, Species: FISH, Strain/Sex: RAINBOW TROUT/MALE, FEMALE) is listed as “liver: tumor”.
